Laboratory results published in publication PMC4604124, “In Vitro Characterization of the Pharmacological Properties of the Anti-Cancer Chelator, Bp4eT, and Its Phase I Metabolites” (PLoS ONE, 2015).
Several values for one entry are separate records, joined by “and”; a condition that tells them apart may be missing. Equal entries are not always repeated.

How the values were obtained:
[1] = test system: labile iron pool of MCF-7 cells; assay: Calcein-AM assay, access to the labile iron pool; format: cell-based, human; set-up: Calcein fluorescence: unit not given here; settings: 10 μM
Summary of the method: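 MCF-7 cells iron-loaded with ferric ammonium citrate (530 μg/mL) for 24 h, then loaded with 2 μM calcein-AM for 30 min at 37°C in ADS buffer, pH 7.4. Calcein fluorescence dequenching (ex 488/em 530 nm) followed for 10 min after adding 10 μM compound; efficacy expressed as percentage of Bp4eT (100%).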

[2] = test system: MCF-7 cells prelabeled with 59Fe2-transferrin; assay: Mobilization (efflux) of cellular 59Fe; format: cell-based, human; set-up: Efflux 59Fe / Efflux 59Fe, Ave: unit not given here
Text: Human transferrin (Sigma) was labeled with ^56Fe or ^59Fe (PerkinElmer, Massachusetts, USA) to produce ^56Fe2-transferrin or ^59Fe2-transferrin (^59Fe2-Tf), respectively, with a final specific activity of 500 pCi/pmol Fe, as previously described. Unbound ^59Fe was removed by exhaustive vacuum dialysis against a large excess of 0.15 M NaCl buffered to pH 7.4 with 1.4% NaHCO3 by standard methods.
To examine the ability of studied compounds to mobilize cellular ^59Fe from MCF-7 cells, iron efflux experiments were performed using established techniques. In brief, after pre-labeling confluent MCF-7 cells on 6-well plates with 0.75 μM ^59Fe2-Tf for 3 h/37°C, the cells were washed four times with ice-cold PBS and then subsequently incubated with 25 μM of Bp4eT or its metabolites for 3 h/37°C. The overlying medium containing released ^59Fe was then decanted from the cells. Radioactivity was measured in both the cells and the supernatant using a γ-scintillation counter (Wallac Wizard 3, Turku, Finland).

[3] = Ascorbate oxidation assay (redox activity of iron complexes); format: biochemical;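 on %Fe 30min (ascorbate oxidation, Fe 100%), průměr: IBE 3 means excess free chelator over iron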;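 on %Fe 30min (ascorbate oxidation, Fe 100%): IBE 3 means excess free chelator over iron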;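 on %Fe 30min (ascorbate oxidation, Fe = 100%), průměr (mean): IBE 1 means iron-binding equivalents giving fully coordinated iron-chelator complexes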;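 on %Fe 30min (ascorbate oxidation, Fe = 100%), single replicates: IBE 1 means iron-binding equivalents giving fully coordinated iron-chelator complexes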;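 on %Fe 30min: ascorbate oxidation as % of the Fe control (Fe 100%): IBE 0.1 means iron-binding equivalents with iron in excess over chelator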;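 on Change of absorbance, odečet 0 (time 0 subtracted), čas 10, průměr: IBE 3 means excess free chelator over 10 µM FeCl3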;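 on Change of absorbance, odečet 0 (time 0 subtracted), čas 10: IBE 3 means excess free chelator over 10 µM FeCl3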;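 on Change of absorbance, odečet 0 (time 0 subtracted), čas 20, průměr: 100 µM ascorbate with 10 µM FeCl3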;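 on Change of absorbance, odečet 0 (time 0 subtracted), čas 20: 100 µM ascorbate with 10 µM FeCl3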;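 on Change of absorbance, odečet 0 (time 0 subtracted), čas 30, průměr: 100 µM ascorbate with 10 µM FeCl3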;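 on Change of absorbance, odečet 0 (time 0 subtracted), čas 30: 100 µM ascorbate with 10 µM FeCl3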;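 on odečet 0 (reading minus time 0 reading) at čas 20, single replicates: IBE 1 means fully coordinated iron chelator complexes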;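 on odečet 0 (reading minus time 0 reading) at čas 30, průměr (mean): IBE 1 means fully coordinated iron chelator complexes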;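 on odečet 0 (reading minus time 0 reading) at čas 30, single replicates: IBE 1 means fully coordinated iron chelator complexes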;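 on raw reading at čas 20 (time 20), průměr (mean): IBE 1 means fully coordinated iron chelator complexes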;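 on raw reading at čas 20 (time 20), single replicates: IBE 1 means fully coordinated iron chelator complexes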;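 on raw reading at čas 30 (time 30), průměr (mean): IBE 1 means fully coordinated iron chelator complexes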;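 on raw reading at čas 30 (time 30), single replicates: IBE 1 means fully coordinated iron chelator complexes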
[4] = test system: MCF-7 cells; assay: Cell cycle analysis by flow cytometry (propidium iodide); format: cell-based, human; settings: 0.1 μM, 72 h
Procedure: To examine the effect of the agents on the cell cycle, MCF-7 cells were seeded in 60 mm Petri dishes at a density of 240,000 cells/dish and incubated with Bp4eT or its metabolites for 72 h/37°C. The cells were then harvested, fixed by ethanol and stained by propidium iodide (Molecular Probes, Eugene, OR, USA) for 30 min/37°C, as described previously. Cells were analyzed using Accuri C6 flow cytometer (Becton Dickinson and Company, San Jose, CA USA). Propidium iodide was excited at λex = 488 nm and fluorescence analyzed at λem = 585 nm (FL-2) with a total of 10,000 events collected per analysis.
SigmaStat for Windows 3.5 (Systat Software, San Jose, CA, USA) statistical software package was utilized to analyze results. The data are expressed as the mean ± SD of a given number of experiments. Statistical significance was determined using a one-way ANOVA with a Bonferroni post-hoc test or Student’s t-test. The results were considered to be statistically significant when p < 0.05. The IC50 values were calculated using CalcuSyn 2.0 software (Biosoft, Cambridge, UK). Cell cycle analysis was evaluated using MultiCycle AV Software (Phoenix Flow Systems, San Diego, CA, USA).

[5] = sheet IBE 1, time 10, replicates
[6] = sheet IBE 1, time 20, replicates
[7] = sheet IBE 1, time 30, replicates

Question: Which Calcein fluorescence ([1]; 30 sec, mean (průměr)) does the source give for `CCNC(=S)NN=C(c1ccccc1)c1ccccn1` [Bp4eT, 2-benzoylpyridine 4-ethyl-3-thiosemicarbazone] here?
Answer: 27.822

Question: And the Calcein fluorescence ([1]; 60 sec, mean (průměr))?
Answer: 40.360

Question: And the Calcein fluorescence ([1]; 90 sec, mean (průměr))?
Answer: 65.393

Question: And the Calcein fluorescence ([1]; 120 sec, mean (průměr))?
Answer: 66.572

Question: And the Calcein fluorescence ([1]; 300 sec, mean (průměr))?
Answer: 146.135

Question: And the Calcein fluorescence ([1]; 300 sec, single experiments)?
Answer: 168.950 and 158.308 and 180.958 and 116.900 and 150.183 and 101.508

Question: And the Calcein fluorescence ([1]; 600 sec, mean (průměr))?
Answer: 220.551

Question: And the Calcein fluorescence ([1]; 600 sec, single experiments)?
Answer: 239.975 and 219.283 and 288.833 and 220.450 and 195.583 and 159.183

Question: And the “Chelation efficacy: fluorescence of free calcein at t = 600 s as percentage of Bp4eT” value ([1]; MCF-7, mean of 6 experiments)?
Answer: 100%

Question: And the “Fluorescence of free calcein at 600 s as percentage of Bp4eT” value ([1]; MCF-7, single experiments)?
Answer: 108.807% and 99.4251% and 130.96% and 99.954% and 88.6793% and 72.1752%

Question: And the “Release of cellular 59Fe, % of total cellular 59Fe” value ([2]; 25 μM, 3 h/37°C, MCF-7)?
Answer: 46.4%

Question: What about the “Efflux 59Fe, Ave” value ([2]; average of all replicates) of the same molecule?
Answer: 46.4439

Question: What about the “Efflux 59Fe” value ([2]; single replicate (three per date)) of the same molecule?
Answer: 48.2798 and 45.5975 and 45.2039 and 47.6936 and 45.8687 and 45.6484 and 48.9726 and 45.6298 and 45.1012

Question: What about the “%Fe 30min: ascorbate oxidation as % of the Fe control (Fe 100%)” value ([3]; IBE 0.1, 30 min, mean (průměr)) of the same molecule?
Answer: 114.3%

Question: And the “Change of absorbance after subtraction of time 0 (odečet 0)” value (“Change of absorbance … (odečet 0)” below) ([3]; IBE 0.1, time 10, mean (průměr))?
Answer: -0.04348

Question: What about the “Change of absorbance … (odečet 0)” value ([3]; IBE 0.1, time 20, mean (průměr)) of the same molecule?
Answer: -0.0765

Question: What about the “Change of absorbance … (odečet 0)” value ([3]; IBE 0.1, time 30, mean (průměr)) of the same molecule?
Answer: -0.108

Question: And the “Absorbance (ascorbate, λ = 265 nm)” value ([3]; IBE 0.1, čas 0 (time 0), mean (průměr))?
Answer: 0.839

Question: And the “Absorbance (ascorbate, λ = 265 nm)” value ([3]; IBE 0.1, čas 10 (time 10), mean (průměr))?
Answer: 0.7956

Question: What about the “Absorbance (ascorbate, λ = 265 nm)” value ([3]; IBE 0.1, čas 20 (time 20), mean (průměr)) of the same molecule?
Answer: 0.7625

Question: What about the “Absorbance (ascorbate, λ = 265 nm)” value ([3]; IBE 0.1, čas 30 (time 30), mean (průměr)) of the same molecule?
Answer: 0.731

Question: What about the “Ascorbate oxidation, % of the control” value ([3]; IBE 1) of the same molecule?
Answer: significant (p < 0.001) increase

Question: What about the “Ascorbate oxidation, % of the control” value ([3]; IBE 3) of the same molecule?
Answer: significant (p < 0.001) increase

Question: And the “%Fe 30min (ascorbate oxidation, Fe = 100%), průměr (mean)” value ([3]; sheet IBE 1, 30min, Fe 100%, mean)?
Answer: 274.4%

Question: And the “%Fe 30min (ascorbate oxidation, Fe = 100%), single replicates” value ([3]; sheet IBE 1, 30min, Fe 100%, replicates)?
Answer: 326.6% and 305.9% and 307.7% and 264.1% and 243.3% and 218.6% and 291.9% and 257% and 254.6%

Question: And the “raw reading at čas 0 (time 0), průměr (mean)” value ([3]; sheet IBE 1, time 0, mean of 9 readings)?
Answer: 0.8081

Question: What about the “raw reading at čas 0 (time 0), single replicates” value ([3]; sheet IBE 1, time 0, replicates of 2014-03-24 (two runs) and 2014-03-25) of the same molecule?
Answer: 0.8198 and 0.8003 and 0.8337 and 0.8268 and 0.8308 and 0.7872 and 0.7839 and 0.7637 and 0.8272

Question: What about the “odečet 0 (reading minus time 0 reading) at čas 10, průměr (mean)” value ([3]; sheet IBE 1, time 10, mean) of the same molecule?
Answer: -0.1075

Question: And the “raw reading at čas 10 (time 10), průměr (mean)” value ([3]; sheet IBE 1, time 10, mean of 9 readings)?
Answer: 0.7006

Question: What about the “odečet 0 (reading minus time 0 reading) at čas 10, single replicates” value [3, 5] of the same molecule?
Answer: -0.1527 and -0.1456 and -0.1532 and -0.1025 and -0.07863 and -0.05463 and -0.1235 and -0.07821 and -0.07861

Question: And the “raw reading at čas 10 (time 10), single replicates” value [3, 5]?
Answer: 0.681 and 0.6812 and 0.6776 and 0.6847 and 0.7053 and 0.7091 and 0.7037 and 0.7416 and 0.7217

Question: What about the “odečet 0 (reading minus time 0 reading) at čas 20, průměr (mean)” value ([3]; sheet IBE 1, time 20, mean) of the same molecule?
Answer: -0.1811

Question: And the “raw reading at čas 20 (time 20), průměr (mean)” value ([3]; sheet IBE 1, time 20, mean of 9 readings)?
Answer: 0.627

Question: And the “odečet 0 (reading minus time 0 reading) at čas 20, single replicates” value [3, 6]?
Answer: -0.2337 and -0.2156 and -0.2203 and -0.1671 and -0.1458 and -0.1256 and -0.1987 and -0.1601 and -0.163

Question: And the “raw reading at čas 20 (time 20), single replicates” value [3, 6]?
Answer: 0.6 and 0.6112 and 0.6105 and 0.6201 and 0.6381 (2×) and 0.6284 and 0.6597 and 0.6373

Question: What about the “odečet 0 (reading minus time 0 reading) at čas 30, průměr (mean)” value ([3]; sheet IBE 1, time 30, mean) of the same molecule?
Answer: -0.2442

Question: And the “raw reading at čas 30 (time 30), průměr (mean)” value ([3]; sheet IBE 1, time 30, mean of 9 readings)?
Answer: 0.5639

Question: What about the “odečet 0 (reading minus time 0 reading) at čas 30, single replicates” value [3, 7] of the same molecule?
Answer: -0.2822 and -0.2643 and -0.2658 and -0.2282 and -0.2102 and -0.1888 and -0.2754 and -0.2425 and -0.2402

Question: What about the “raw reading at čas 30 (time 30), single replicates” value [3, 7] of the same molecule?
Answer: 0.5515 and 0.5624 and 0.5649 and 0.5591 and 0.5737 and 0.5749 and 0.5518 and 0.5772 and 0.56

Question: And the “%Fe 30min (ascorbate oxidation, Fe 100%), průměr” value ([3]; sheet IBE 3, 30min, Fe alone = 100%, mean (průměr) of the 9 replicates)?
Answer: 278.6%

Question: And the “%Fe 30min (ascorbate oxidation, Fe 100%)” value ([3]; sheet IBE 3, 30min, Fe alone = 100%, single replicates)?
Answer: 323.8% and 304.1% and 296.1% and 279.4% and 257.4% and 253.6% and 291.2% and 261% and 240.7%

Question: What about the “Change of absorbance, odečet 0 (time 0 subtracted), čas 10, průměr” value ([3]; sheet IBE 3, time 10 minus time 0, mean (průměr)) of the same molecule?
Answer: -0.09469

Question: And the “Change of absorbance, odečet 0 (time 0 subtracted), čas 10” value ([3]; sheet IBE 3, time 10 minus time 0, single replicates)?
Answer: -0.1148 and -0.1115 and -0.1009 and -0.09722 and -0.09232 and -0.09642 and -0.1047 and -0.06955 and -0.06465

Question: And the “Change of absorbance, odečet 0 (time 0 subtracted), čas 20, průměr” value ([3]; sheet IBE 3, time 20 minus time 0, mean (průměr))?
Answer: -0.1775

Question: And the “Change of absorbance, odečet 0 (time 0 subtracted), čas 20” value ([3]; sheet IBE 3, time 20 minus time 0, single replicates)?
Answer: -0.2173 and -0.2064 and -0.1913 and -0.1735 and -0.1668 and -0.1578 and -0.1895 and -0.1498 and -0.1449

Question: And the “Change of absorbance, odečet 0 (time 0 subtracted), čas 30, průměr” value ([3]; sheet IBE 3, time 30 minus time 0, mean (průměr))?
Answer: -0.2575

Question: And the “Change of absorbance, odečet 0 (time 0 subtracted), čas 30” value ([3]; sheet IBE 3, time 30 minus time 0, single replicates)?
Answer: -0.3006 and -0.2823 and -0.2749 and -0.2593 and -0.2389 (2×) and -0.2354 and -0.2666 and -0.2203

Question: What about the “G1 phase of the cell cycle” value [4] of the same molecule?
Answer: not significantly (p > 0.05) different from the control

Question: And the “Percentage of cells in the S phase” value ([4]; control 15%)?
Answer: 35%

Question: What about the “Percentage of cells in the G2/M phase” value ([4]; control 33%) of the same molecule?
Answer: 12%
